Laboratory results: patent US6894046B2, “IL-5 inhibiting 6-azauracil derivatives” (Janssen Pharmaceutica N.V., priority 1998, dated 2005)

System: IL-5 production in human blood
Experiment: In vitro inhibition of IL-5 production in human blood (phytohemagglutinin-stimulated whole blood, ELISA)
Type: cell-based
Details: test dose 1×10^−6 M, phytohemagglutinin 2 μg/ml, 48 hours; for inhibition at 1 µM: read-out: % inh. (percentage inhibition of IL-5 production)
Description: EXAMPLE C.1: IN VITRO INHIBITION OF IL-5 PRODUCTION IN HUMAN BLOOD
Peripheral blood from healthy male donors was drawn into heparinized syringes (12.5 U heparin/ml). Blood samples were three-fold diluted in RMPI 1640 medium (Life Technologies, Belgium) supplemented with 2 mM L-glutamine, 100 U/ml penicillin and 100 μg/ml streptomycin, and 300 μl fractions were distributed in 24-well multidisc plates. Blood samples were preincubated (60 minutes at 37° C.) in a humidified 6% CO2-atmosphere with 100 μl of drug solvent (final concentration 0.02% dimethylsulfoxide in RPMI 1640) or with 100 μl of an appropriate dose of test compound before being stimulated by the addition of 100 μl of phytohemagglutinin HA17 (Murex, UK) at a final concentration of 2 μg/ml. After 48 hours, cell-free supernatant fluids were collected by centrifugation and stored at −70° C. until tested for the presence of IL-5.
IL-5 measurements were conducted as described in Van Wauwe et al. (1996, Inflamm Res, 45, 357-363) on page 358 using ELISA.
Table 6 lists the percentage inhibition of IL-5 production (column “% inh”) at a test dose of 1×10^−6 M, or in case the percentage inhibition is marked with an “*” 1×10^−5 M, for the compounds of the present invention.

Row | Molecule | inhibition at 1 µM [%] | % inh. (percentage inhibition of IL-5 production) [%]
1 | CC(C)(c1nc(-c2ccccc2)c(-c2cccc(N)c2)s1)c1c(Cl)cc(-n2ncc(=O)[nH]c2=O)cc1Cl [Compound 50, 2-[4-[1-[5-(3-aminophenyl)4-phenyl-2-thiazolyl]-1-methylethyl]-3,5-dichlorophenyl]-1,2,4-triazine-3,5(2H,4H)-dione] | 91 | 
2 | CC(C)(c1nc(-c2csc3ccccc23)cs1)c1c(Cl)cc(-n2ncc(=O)[nH]c2=O)cc1Cl [Compound 79] |  | 75
3 | CC(C)(c1nc(-c2ccncc2)cs1)c1c(Cl)cc(-n2ncc(=O)[nH]c2=O)cc1Cl [Compound 7] |  | 88
4 | 1-[[2-[1-[2,6-dichloro-4-(4,5-dihydro-3,5-dioxo-1,2,4-triazin-2(3H)-yl)-phenyl]-1-methylethyl]-4-phenyl-2-thiazolyl]acetyl-4-phenylmethyl)piperazine [Compound 35] |  | 63
5 | Cc1cccc(-c2nc(C(C)(C)c3c(Cl)cc(-n4ncc(=O)[nH]c4=O)cc3Cl)no2)c1 [Compound 91] |  | 81
6 | CC(C)(c1nc(-c2ccccc2)c(CC(=O)N2CCC(O)CC2)s1)c1c(Cl)cc(-n2ncc(=O)[nH]c2=O)cc1Cl [Compound 22] |  | 18
7 | CC(C)(c1nc(-c2ccccc2)c(-c2cccc(OS(N)(=O)=O)c2)s1)c1c(Cl)cc(-n2ncc(=O)[nH]c2=O)cc1Cl [Compound 66, 3-[2-[1-[2,6-dichloro-4-(4,5-dihydro-3,5-dioxo-1,2,4-triazin-2(3H)-yl)phenyl]-1-methylethyl]-4-phenyl-5-thiazolyl]phenylsulfamate (ester)] |  | 53
8 | CN1CCN(Cc2ccc(-c3csc(C(C)(C)c4c(Cl)cc(-n5ncc(=O)[nH]c5=O)cc4Cl)n3)s2)CC1 [Compound 112] |  | 39
9 | CC(C)(C)OC(=O)c1sc(C(C)(C)c2c(Cl)cc(-n3ncc(=O)[nH]c3=O)cc2Cl)nc1-c1ccccc1 [Compound 116] |  | 89
10 | Cc1ccc(-c2nc(C(C)(C)c3c(Cl)cc(-n4ncc(=O)[nH]c4=O)cc3Cl)no2)cc1 [Compound 125] |  | 43
11 | COCCNCc1cccc(-c2sc(C(C)(C)c3c(Cl)cc(-n4ncc(=O)[nH]c4=O)cc3Cl)nc2-c2ccccc2Cl)c1.Cl [Compound 69] |  | 45
12 | COC(=O)c1ccc(-c2nc(C(C)(C)c3c(Cl)cc(-n4ncc(=O)[nH]c4=O)cc3Cl)no2)cc1 [Compound 135] |  | 11
13 | CC(C)(c1nc(-c2ccccc2)c(-c2cccc(NC(N)=O)c2)s1)c1c(Cl)cc(-n2ncc(=O)[nH]c2=O)cc1Cl [Compound 54, N-[3-[2-[1-[2,6-dichloro-4-(4,5-dihydro-3,5-dioxo-1,2,4-triazin-2(3H)-yl)phenyl]-1-methylethyl]-4-phenyl-5-thiazolyl]phenyl]urea] | 61 | 
14 | CC(C)(c1nc(-c2cccc(F)c2)cs1)c1c(Cl)cc(-n2ncc(=O)[nH]c2=O)cc1Cl [Compound 28] |  | 83
15 | CCOC(=O)Cc1sc(C(C)(C)c2c(Cl)cc(-n3ncc(=O)[nH]c3=O)cc2Cl)nc1-c1ccccc1 [Compound 9] |  | 88
16 | CC(=O)Nc1cccc(-c2sc(C(C)(C)c3c(Cl)cc(-n4ncc(=O)[nH]c4=O)cc3Cl)nc2-c2ccccc2)c1 [Compound 51, N-[3-[2-[1-[2,6-dichloro-4-(4,5-dihydro-3,5-dioxo-1,2,4-triazin-2(3H)-yl)phenyl]-1-methylethyl]4-phenyl-5-thiazolyl]phenyl]-acetamide] | 73 | 
17 | CC(C)(c1nc(-c2cccs2)cs1)c1c(Cl)cc(-n2ncc(=O)[nH]c2=O)cc1Cl [Compound 5] |  | 90
18 | CC(C)(c1noc(-c2cccc(Cl)c2)n1)c1c(Cl)cc(-n2ncc(=O)[nH]c2=O)cc1Cl [Compound 93] |  | 84

Row | Molecule | inhibition at 1 µM [%] | % inh. (percentage inhibition of IL-5 production) [%]
19 | CC(C)(c1nc(-c2ccccc2Cl)c(-c2cccc(C#N)c2)s1)c1c(Cl)cc(-n2ncc(=O)[nH]c2=O)cc1Cl [Compound 57] |  | 85
20 | COCc1sc(C(C)(C)c2c(Cl)cc(-n3ncc(=O)[nH]c3=O)cc2Cl)nc1-c1ccccc1 [Compound 30] |  | 93
21 | 2-[3,5-dichloro-4-(2-pyridinyl-methyl)phenyl]-1,2,4-triazine-3,5(2H,4H)-dione hydrochloride(:1); hydrate(1:1) [Compound 107] |  | 14
22 | CC(C)(c1nc(-c2ccccc2F)c(-c2ccccc2)s1)c1c(Cl)cc(-n2ncc(=O)[nH]c2=O)cc1Cl [Compound 34] |  | 93
23 | CC(C)(c1nc(-c2ccccc2)c(-c2cccnc2)s1)c1c(Cl)cc(-n2ncc(=O)[nH]c2=O)cc1Cl [Compound 33, 2-[3,5-dichloro-4-[1-methyl-1-[4-phenyl-5-(3-pyridinyl)-2-thiazolyl]ethyl]phenyl]-1,2,4-triazine-3,5(2H,4H)-dione] | 90 | 
24 | CC(C)(c1nc(-c2ccc(Br)s2)cs1)c1c(Cl)cc(-n2ncc(=O)[nH]c2=O)cc1Cl [Compound 77] |  | 84
25 | CC(C)(c1nc(-c2ccccc2)c(CC(=O)O)s1)c1c(Cl)cc(-n2ncc(=O)[nH]c2=O)cc1Cl [Compound 19, 2-[1-[2,6-dichloro-4-(4,5-dihydro-3,5-dioxo-1,2,4-triazin-2(3H)-yl)phenyl]1-α-methylethyl]-4-phenyl-5-thiazoleacetic acid] |  | 13
26 | CC(C)(c1nc(-c2ccccc2Cl)c(C=O)s1)c1c(Cl)cc(-n2ncc(=O)[nH]c2=O)cc1Cl [Compound 46] |  | 44
27 | 1′-[[2-[1-[2,6-dichloro-4-(4,5-dihydro-3,5-dioxo-1,2,4-triazin-2(3H)-yl)phenyl]-1-methylethyl-4-phenyl-5-thiazolyl]acetyl]-(1,4′-dipiperidine) [Compound 24] |  | 32
28 | Cc1sc(C(C)(C)c2c(Cl)cc(-n3ncc(=O)[nH]c3=O)cc2Cl)nc1-c1cccc(Cl)c1 [Compound 3, 2-[3,5-di-chloro-4-[1-[4-(3-chlorophenyl)-5-methyl-2-thiazolyl]-1-methylethyl]phenyl]-1,2,4-triazine-3,5(2H,4H)-dione] | 92 | 
29 | Cc1sc(C(C)(C)c2c(Cl)cc(-n3ncc(=O)[nH]c3=O)cc2Cl)nc1-c1ccccc1Cl [Compound 27] |  | 77
30 | CN1CCN(c2sc(C(C)(C)c3c(Cl)cc(-n4ncc(=O)[nH]c4=O)cc3Cl)nc2-c2ccccc2)CC1 [Compound 16] |  | 57
31 | CCOC(=O)Cc1sc(C(C)(C)c2c(Cl)cc(-n3ncc(=O)[nH]c3=O)cc2Cl)nc1-c1cccs1 [Compound 118] |  | 78
32 | CC(C)(c1nc(-c2c(F)cccc2F)cs1)c1c(Cl)cc(-n2ncc(=O)[nH]c2=O)cc1Cl [Compound 13] |  | 75
33 | CC(C)(c1noc(-c2cccc(F)c2)n1)c1c(Cl)cc(-n2ncc(=O)[nH]c2=O)cc1Cl [Compound 90] |  | 91
34 | CC(C)(C)OC(=O)c1sc(C(C)(C)c2c(Cl)cc(-n3ncc(=O)[nH]c3=O)cc2Cl)nc1-c1cccs1 [Compound 119] |  | 93
35 | CC(C)(c1nc(-c2ccccc2)c(C(=O)c2ccccc2)s1)c1c(Cl)cc(-n2ncc(=O)[nH]c2=O)cc1Cl [Compound 25] |  | 79
